Experimental data: patent US20050239724A1, “Skin penetration enhancing components” (Wyeth, priority 1997, published 2005)

Key:
[1] = Skin biopsy tissue concentration, four 0.7 mm horizontal sections, acetonitrile extraction (Example 1); type: in vivo; details: human, 8 % sirolimus in the formulation
Experimental: In parallel, skin biopsies were taken from the individuals after 7 hours, the biopsy samples were glued to a glass slide and serially sectioned horizontally into 4 layers each 0.7 mm thick and extracted with acetonitrile.

Ki-67 = assay: Biopsy immunohistochemistry, Ki-67 proliferating cells in the epidermis; type: in vivo, human; details: lesion biopsy at end of treatment; control mean 83/mm^3; P-0.027 (unpaired T test)
Experimental: (§1) Assessments were done at weeks 0, 2, 4 and 6 on the low potency treatment and at 8, 10 and 12 on the higher dose formulation, provided there were no signs or laboratory evidence of toxicity. Clinical scoring was done at each attendance and areas traced at the start and finish of treatment. Biopsies from active and control lesions were performed at the end of treatment or at withdrawal. Biopsies were not done if an adverse event such as a reaction to the application occurred as this would influence the measures being assessed.
(§2) In biopsies, epidermal thickness was measured and immunoperoxidase immunohistochemistry done using the following antibodies to count cells in a blinded fashion:
(§3) Thus, antibody Ki-67 was used to give a measure of hyperproliferation in the epidermis and CD4 helper lymphocytes were used to give a measure of auto-immune activity which drives psoriasis.
(§4) Cell counting in tissues was automated, using computer assisted image analysis (Seescan). Data was analysed by Student's T test for paired data and Wilcoxon's test.

CD4 helper lymphocytes = assay: Biopsy immunohistochemistry, CD4 helper lymphocytes; type: in vivo, human; details: lesion biopsy at end of treatment; control 61/mm^3; P-0.0026 (unpaired T-test)
Experimental: as §1, §2, §3, §4

[2] = Skin biopsy tissue concentration, upper and lower half, HPLC (Example 2); type: in vivo, human; details: 7 hours after application, 2.2% sirolimus in capric acid:isopropyl myristate:benzyl alcohol 50:40:10; for concentration at 7 h: human, skin biopsy, topical, 2.2 % sirolimus in the formulation, Subject A
Experimental: (§5) A formulation of sirolimus (2.2%) in a vehicle comprising isopropyl myristate 40%, benzyl alcohol 10% and capric acid 50% was tested in single application experiments on three individuals with normal skin. […] After 7 hours biopsy samples were taken from two of the individuals. These were bisected in parallel with the surface to give an upper and lower half, roughly corresponding to the epidermis and dermis. The skin was homogenised with acetonitrile and sirolimus concentration was determined by HPLC.

chronic plaque psoriasis = assay: Double blind left-right comparison of topical sirolimus in chronic plaque psoriasis (Example 3); type: in vivo, human
Experimental: A double blind, left-right comparison of the effect of applying topical sirolimus in formulations as described in Examples 1 and 2, to 24 patients with chronic (over three months) plaque psoriasis was conducted. (22 out of the 24 patients were eventually analysed.) A single target plaque was treated for the first 6 weeks with the lower potency formulation of Example 2. After this the active treatment was increased to the higher potency formulation of Example 1 for 6 weeks unless a clear improvement on one side had already occurred.
Subjects were all aged over 18 years, were able to apply creams and had no other significant medical problems. Transaminases were not more than twice the upper limit of normal and subjects were selected to avoid those likely to have a holiday in sunlight during the 6-12 weeks of the trial.
Before the trial started, there was a two week washout period in which only bland emollients were applied to the target lesions.
Treatment was randomised and double blind. Hands were thoroughly washed between the twice daily application of the test formulations. The active formulation was applied consistently to one plaque while a control comprising only the vehicle base was applied consistently to the plaque on the opposite side. Where possible the arms or elbows were selected as target areas as cross contamination is less likely at these sites.
as §1
The lesions were also assessed at fortnightly intervals with subjective scoring on a scale of 0-8 for erythema, thickening, and scaling. […] These included pulsed A scan ultrasound measurement of lesion thickness and erythema measured with a reflectance erythema metre, both were averaged over 5 areas in each psoriatic lesion and were validated using a previous study which was performed using betamethasome as a reference.
At each visit we measured the full blood count, biochemistry, including urea, electrolytes, liver enzymes, bilirubin, calcium, magnesium, uric acid, glucose, amylase, muscle enzymes, lipids and cholesterol. […]
as §4

[3] = Venous blood sirolimus levels after single topical application (MSGCMS); type: in vivo, human; details: normal skin, 4, 7 and 24 hours
Experimental: A formulation was formed of 8% sirolimus and 92% of a vehicle of capric acid (50%) with benzyl alcohol (50%). This was tested in single application experiments on four individuals with normal skin.
as §5

- concentration at 7 h ([1]; section 1 (surface, 0-0.7 mm), topical, subject A, section 1 (surface, 0-0.7 mm), 7 hours after application, 8% sirolimus in capric acid:benzyl alcohol 50:50, read-out: Sirolimus concentration, skin section 1): 59000 ng/g
- concentration at 7 h ([1]; section 1 (surface, 0-0.7 mm), topical, subject B, section 1 (surface, 0-0.7 mm), 7 hours after application, 8% sirolimus in capric acid:benzyl alcohol 50:50, read-out: Sirolimus concentration, skin section 1): 288000 ng/g
- concentration at 7 h ([1]; section 1 (surface, 0-0.7 mm), topical, subject C, section 1 (surface, 0-0.7 mm), 7 hours after application, 8% sirolimus in capric acid:benzyl alcohol 50:50, read-out: Sirolimus concentration, skin section 1): 301000 ng/g
- concentration at 7 h ([1]; section 1 (surface, 0-0.7 mm), topical, subject D, section 1 (surface, 0-0.7 mm), 7 hours after application, 8% sirolimus in capric acid:benzyl alcohol 50:50, read-out: Sirolimus concentration, skin section 1): 216000 ng/g
- concentration at 7 h ([1]; section 2 (0.7-1.4 mm), topical, subject B, section 2 (0.7-1.4 mm), 7 hours after application, 8% sirolimus in capric acid:benzyl alcohol 50:50, read-out: Sirolimus concentration, skin section 2): 108000 ng/g
- concentration at 7 h ([1]; section 2 (0.7-1.4 mm), topical, subject C, section 2 (0.7-1.4 mm), 7 hours after application, 8% sirolimus in capric acid:benzyl alcohol 50:50, read-out: Sirolimus concentration, skin section 2): 144000 ng/g
- concentration at 7 h ([1]; section 2 (0.7-1.4 mm), topical, subject D, section 2 (0.7-1.4 mm), 7 hours after application, 8% sirolimus in capric acid:benzyl alcohol 50:50, read-out: Sirolimus concentration, skin section 2): 126000 ng/g
- concentration at 7 h ([1]; section 3, topical, subject A, section 3, 7 hours after application, 8% sirolimus in capric acid:benzyl alcohol 50:50, read-out: Sirolimus concentration, skin section 3): 255000 ng/g
- concentration at 7 h ([1]; section 3, topical, subject B, section 3, 7 hours after application, 8% sirolimus in capric acid:benzyl alcohol 50:50, read-out: Sirolimus concentration, skin section 3): 173000 ng/g
- concentration at 7 h ([1]; section 3, topical, subject C, section 3, 7 hours after application, 8% sirolimus in capric acid:benzyl alcohol 50:50, read-out: Sirolimus concentration, skin section 3): 339000 ng/g
- concentration at 7 h ([1]; section 3, topical, subject D, section 3, 7 hours after application, 8% sirolimus in capric acid:benzyl alcohol 50:50, read-out: Sirolimus concentration, skin section 3): 256000 ng/g
- concentration at 7 h ([1]; section 4, topical, subject A, section 4, 7 hours after application, 8% sirolimus in capric acid:benzyl alcohol 50:50, read-out: Sirolimus concentration, skin section 4): 239000 ng/g
- concentration at 7 h ([1]; section 4, topical, subject B, section 4, 7 hours after application, 8% sirolimus in capric acid:benzyl alcohol 50:50, read-out: Sirolimus concentration, skin section 4): 214000 ng/g
- concentration at 7 h ([1]; section 4, topical, subject C, section 4, 7 hours after application, 8% sirolimus in capric acid:benzyl alcohol 50:50, read-out: Sirolimus concentration, skin section 4): 370000 ng/g
- concentration at 7 h ([1]; section 4, topical, subject D, section 4, 7 hours after application, 8% sirolimus in capric acid:benzyl alcohol 50:50, read-out: Sirolimus concentration, skin section 4): 241000 ng/g
- Sirolimus Concentration, lower skin segment ([2]; Subject B, Lower (2), roughly dermis): 0.5 µg/mg
- Sirolimus Concentration, upper skin segment ([2]; Subject B, Upper (1), roughly epidermis): 1.5 µg/mg
- concentration at 7 h ([2]; lower half (roughly dermis), Lower (2), roughly dermis, read-out: Sirolimus Concentration, lower skin segment): 333000 ng/g
- concentration at 7 h ([2]; upper half (roughly epidermis), Upper (1), roughly epidermis, read-out: Sirolimus Concentration, upper skin segment): 0 ng/g
SMILES: CO[C@H]1C[C@@H]2CC[C@@H](C)[C@@](O)(O2)C(=O)C(=O)N2CCCC[C@H]2C(=O)O[C@H]([C@H](C)C[C@@H]2CC[C@@H](O)[C@H](OC)C2)CC(=O)[C@H](C)/C=C(\C)[C@@H](O)[C@@H](OC)C(=O)[C@H](C)C[C@H](C)/C=C/C=C/C=C/1C [sirolimus]
- Ki-67 proliferating cells, mean (Ki-67): 55 /mm^3
- CD4 cells, mean (CD4 helper lymphocytes): 32.7 /mm^3
- contact sensitivity to the topical preparations (chronic plaque psoriasis; 22 analysed patients, one to benzyl alcohol, one to sirolimus and one to both): Three of the twenty-two patients developed contact sensitivity
- Ultrasound thickness, mean (chronic plaque psoriasis; psoriatic lesion, topical twice daily, 2.2% then 8% formulation, vehicle control 2.96, NS): 2.99 mm
- Erythema measurement, mean (chronic plaque psoriasis; reflectance erythema metre, topical twice daily, 2.2% then 8% formulation, vehicle control 33.1, NS): 34.5 arbitrary units
- Clinical Score, mean (chronic plaque psoriasis; scale of 0-24, high values indicating a better result, final score, topical twice daily, 2.2% formulation 6 weeks then 8% formulation 6 weeks, vehicle control 9.1, p = 0.032): 11.2
- sirolimus levels in venous blood ([3]; 2.2% sirolimus in isopropyl myristate 40%, benzyl alcohol 10%, capric acid 50%, three individuals, MSGCMS): no significant levels of sirolimus were detected
- sirolimus levels in venous blood ([3]; 8% sirolimus in capric acid:benzyl alcohol 50:50, four individuals, MSGCMS detects down to 0.1 ng/ml): no significant levels of sirolimus were detected
